What was measured:
Human HDAC1 = biological target: T1, Human HDAC1 (Homo sapiens, UniProt Q13547); assay: HDAC1 biochemical assay, AMC-labeled peptide substrate; settings: read-out: HDAC Isoform IC50 (nM) 1
T1 construct: full length with C-terminal His-tag and C-terminal FLAG-tag; His (C); FLAG (C); host or cells: baculovirus expression system
In short: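 Baculovirus-expressed full-length human HDAC1 with His and FLAG tags, 0.3 ng/ul, incubated 1 h at 30° C with compound and 50 μM RHKK(Ac)AMC in Tris pH 8.0 buffer with BSA and 1% DMSO. Developer then releases AMC from deacetylated substrate; fluorescence read at 360/460 nm.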

Human HDAC4 = biological target: T2, Human HDAC4 (Homo sapiens, UniProt P56524); assay: HDAC4 biochemical assay, class IIa-specific substrate; settings: read-out: HDAC Isoform IC50 (nM) 4
T2 construct: amino acids 627-1085 with N-terminal GST tag; GST (N); host or cells: baculovirus expression system
T2 sequence (P56524 627-1084 limits assumed): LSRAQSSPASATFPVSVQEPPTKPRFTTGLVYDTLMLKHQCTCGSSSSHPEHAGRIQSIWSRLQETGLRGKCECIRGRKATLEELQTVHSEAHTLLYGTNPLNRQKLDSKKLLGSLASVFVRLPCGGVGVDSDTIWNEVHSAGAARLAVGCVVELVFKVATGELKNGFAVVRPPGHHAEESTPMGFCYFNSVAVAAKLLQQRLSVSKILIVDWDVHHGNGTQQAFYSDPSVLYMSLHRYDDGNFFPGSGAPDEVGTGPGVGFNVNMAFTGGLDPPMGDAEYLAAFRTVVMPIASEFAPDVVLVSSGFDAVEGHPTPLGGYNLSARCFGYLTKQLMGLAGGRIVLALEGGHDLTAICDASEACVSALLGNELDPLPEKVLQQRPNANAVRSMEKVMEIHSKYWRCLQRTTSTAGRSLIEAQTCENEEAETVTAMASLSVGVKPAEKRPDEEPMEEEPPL
In short: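 GST-tagged human HDAC4 (aa 627-1085, baculovirus) at 0.004 ng/ul was incubated 30 min at room temperature with 50 μM class IIa-specific substrate BOC-Lys(trifluoroacetyl)-AMC in Tris-HCl pH 8.0 buffer with BSA, 1% DMSO. Developer then released AMC, read at 360/460 nm.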

Human HDAC5 = biological target: T3, Human HDAC5 (Homo sapiens, UniProt Q9UQL6); assay: HDAC5 biochemical assay, class IIa-specific substrate; settings: read-out: HDAC Isoform IC50 (nM) 5
T3 construct: full length with C-terminal His tag, MW=51.1 kDa; His (C); host or cells: baculovirus expression system
T3 sequence (Q9UQL6 656-1122 limits assumed): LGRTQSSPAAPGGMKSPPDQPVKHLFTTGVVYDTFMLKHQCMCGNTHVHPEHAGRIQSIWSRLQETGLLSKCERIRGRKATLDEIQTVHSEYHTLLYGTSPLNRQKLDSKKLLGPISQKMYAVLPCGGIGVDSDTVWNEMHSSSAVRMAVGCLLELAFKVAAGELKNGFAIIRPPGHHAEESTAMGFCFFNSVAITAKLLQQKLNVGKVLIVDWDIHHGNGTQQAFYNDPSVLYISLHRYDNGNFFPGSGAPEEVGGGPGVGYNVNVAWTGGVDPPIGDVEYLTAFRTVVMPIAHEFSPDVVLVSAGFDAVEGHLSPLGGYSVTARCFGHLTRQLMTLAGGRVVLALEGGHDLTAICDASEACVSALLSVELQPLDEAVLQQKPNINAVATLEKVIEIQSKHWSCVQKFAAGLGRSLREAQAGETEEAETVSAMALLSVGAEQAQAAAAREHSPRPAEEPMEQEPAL
In short: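 Full-length C-terminal His-tagged HDAC5 from baculovirus (0.05 ng/ul) incubated 30 min at room temperature with 50 μM Boc-Lys(trifluoroacetyl)-AMC and compound, Tris pH 8.0 buffer with BSA, 1% DMSO. Developer then releases AMC; fluorescence 360/460 nm.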

Recombinant human HDAC6 = biological target: T4, Recombinant human HDAC6 (Homo sapiens, UniProt Q9UBN7); assay: HDAC6 biochemical assay, AMC-labeled peptide substrate; settings: HDAC6; read-out: HDAC Isoform IC50 (nM) 6
T4 construct: full length, MW=159 kDa; GST (N); host or cells: Sf9 insect cells (baculovirus)
T4 sequence (Q9UBN7 1-1215): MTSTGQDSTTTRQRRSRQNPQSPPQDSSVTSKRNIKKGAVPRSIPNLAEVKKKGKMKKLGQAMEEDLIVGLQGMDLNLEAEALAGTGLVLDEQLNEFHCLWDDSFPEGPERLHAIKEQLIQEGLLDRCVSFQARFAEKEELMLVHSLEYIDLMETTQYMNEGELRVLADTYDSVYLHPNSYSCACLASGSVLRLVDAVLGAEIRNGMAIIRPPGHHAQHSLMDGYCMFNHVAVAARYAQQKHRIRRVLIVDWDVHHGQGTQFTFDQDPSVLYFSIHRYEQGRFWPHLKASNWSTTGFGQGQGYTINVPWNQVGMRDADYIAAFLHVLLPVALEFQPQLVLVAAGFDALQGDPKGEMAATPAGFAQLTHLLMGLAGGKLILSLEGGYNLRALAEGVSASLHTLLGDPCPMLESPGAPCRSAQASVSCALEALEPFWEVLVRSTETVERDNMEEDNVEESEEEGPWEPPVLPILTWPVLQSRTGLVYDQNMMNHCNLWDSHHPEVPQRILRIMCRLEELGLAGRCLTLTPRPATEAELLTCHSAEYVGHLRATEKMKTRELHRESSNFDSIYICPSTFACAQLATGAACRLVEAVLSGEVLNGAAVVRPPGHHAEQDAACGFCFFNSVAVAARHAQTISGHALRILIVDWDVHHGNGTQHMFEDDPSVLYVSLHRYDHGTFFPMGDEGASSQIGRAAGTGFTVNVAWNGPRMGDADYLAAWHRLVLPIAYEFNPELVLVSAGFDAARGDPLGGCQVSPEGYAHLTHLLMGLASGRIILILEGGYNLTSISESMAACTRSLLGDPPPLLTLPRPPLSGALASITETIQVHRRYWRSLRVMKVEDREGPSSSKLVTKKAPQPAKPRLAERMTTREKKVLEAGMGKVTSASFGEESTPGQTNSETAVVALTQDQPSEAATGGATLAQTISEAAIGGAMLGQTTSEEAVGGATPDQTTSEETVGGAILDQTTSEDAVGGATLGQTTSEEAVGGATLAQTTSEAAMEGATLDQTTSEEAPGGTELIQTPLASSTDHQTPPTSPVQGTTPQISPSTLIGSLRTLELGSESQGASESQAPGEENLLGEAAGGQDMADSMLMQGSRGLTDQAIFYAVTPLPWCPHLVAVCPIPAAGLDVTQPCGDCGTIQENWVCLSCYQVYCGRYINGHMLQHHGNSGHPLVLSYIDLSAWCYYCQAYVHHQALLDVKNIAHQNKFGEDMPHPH
In short: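 Two-step fluorogenic read-out: enzyme deacetylates 50 μM RHKK(Ac)AMC for 1 h at 30° C in pH 8.0 Tris buffer with BSA and 1% DMSO, then developer cleavage gives signal at Ex 360/Em 460. Enzyme: 0.3 ng/ul recombinant full-length human HDAC6, GST-tagged, Sf9-expressed.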

Human HDAC7 = biological target: T5, Human HDAC7 (Homo sapiens, UniProt Q8WUI4); assay: HDAC7 biochemical assay, class IIa-specific substrate; settings: read-out: HDAC Isoform IC50 (nM) 7
T5 construct: (a.a. 518-end) with N-terminal GST tag; GST (N); host or cells: baculovirus expression system
T5 sequence (Q8WUI4 518-952 limits assumed): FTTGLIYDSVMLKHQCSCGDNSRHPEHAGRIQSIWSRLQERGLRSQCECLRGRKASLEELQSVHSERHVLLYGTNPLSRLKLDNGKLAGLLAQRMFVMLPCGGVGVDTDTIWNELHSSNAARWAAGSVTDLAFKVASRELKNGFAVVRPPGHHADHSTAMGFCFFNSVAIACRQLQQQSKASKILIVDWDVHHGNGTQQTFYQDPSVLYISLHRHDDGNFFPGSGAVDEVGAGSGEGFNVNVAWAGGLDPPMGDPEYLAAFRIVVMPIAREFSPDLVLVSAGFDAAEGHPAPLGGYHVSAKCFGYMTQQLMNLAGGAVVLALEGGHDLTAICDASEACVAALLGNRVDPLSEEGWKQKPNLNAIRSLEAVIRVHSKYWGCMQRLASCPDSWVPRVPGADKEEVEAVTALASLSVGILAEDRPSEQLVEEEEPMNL
In short: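 GST-tagged HDAC7 (a.a. 518-end, baculovirus-expressed) at 0.001 ng/ul with 50 μM Boc-Lys(trifluoroacetyl)-AMC substrate, 30 min at room temperature in pH 8.0 Tris buffer with BSA, 1% DMSO final. Developer then releases AMC; fluorescence read at 360/460 nm.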

Human HDAC9 = biological target: T6, Human HDAC9 (Homo sapiens, UniProt Q9UKV0); assay: HDAC9 biochemical assay, class IIa-specific substrate; settings: read-out: HDAC Isoform IC50 (nM) 9
T6 construct: amino acids 604-1066 with C-terminal His tag; His (C); host or cells: baculovirus expression system
T6 sequence (Q9UKV0 604-1066 isoform Q9UKV0-5): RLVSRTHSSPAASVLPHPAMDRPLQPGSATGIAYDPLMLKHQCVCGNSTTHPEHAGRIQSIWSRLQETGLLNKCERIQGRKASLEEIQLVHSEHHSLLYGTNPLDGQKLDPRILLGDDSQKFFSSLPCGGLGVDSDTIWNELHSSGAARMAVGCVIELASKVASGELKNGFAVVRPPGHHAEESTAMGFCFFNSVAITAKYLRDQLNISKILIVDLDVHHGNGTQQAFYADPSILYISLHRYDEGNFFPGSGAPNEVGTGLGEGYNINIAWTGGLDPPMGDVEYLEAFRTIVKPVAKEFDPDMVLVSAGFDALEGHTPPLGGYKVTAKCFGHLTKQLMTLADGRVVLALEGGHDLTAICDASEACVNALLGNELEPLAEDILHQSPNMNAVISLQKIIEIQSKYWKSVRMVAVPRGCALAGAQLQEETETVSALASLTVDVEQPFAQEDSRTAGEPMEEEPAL
In short: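 HDAC9 residues 604-1066 (C-terminal His tag, baculovirus-expressed) at 0.06 ng/ul with 50 μM class IIa substrate Boc-Lys(trifluoroacetyl)-AMC in Tris-HCl pH 8.0 buffer with BSA and 1% DMSO. 30 min at room temperature, then developer added; fluorescence read at 360/460 nm Ex/Em.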

T1 sequence (Q13547 whole entry, canonical isoform): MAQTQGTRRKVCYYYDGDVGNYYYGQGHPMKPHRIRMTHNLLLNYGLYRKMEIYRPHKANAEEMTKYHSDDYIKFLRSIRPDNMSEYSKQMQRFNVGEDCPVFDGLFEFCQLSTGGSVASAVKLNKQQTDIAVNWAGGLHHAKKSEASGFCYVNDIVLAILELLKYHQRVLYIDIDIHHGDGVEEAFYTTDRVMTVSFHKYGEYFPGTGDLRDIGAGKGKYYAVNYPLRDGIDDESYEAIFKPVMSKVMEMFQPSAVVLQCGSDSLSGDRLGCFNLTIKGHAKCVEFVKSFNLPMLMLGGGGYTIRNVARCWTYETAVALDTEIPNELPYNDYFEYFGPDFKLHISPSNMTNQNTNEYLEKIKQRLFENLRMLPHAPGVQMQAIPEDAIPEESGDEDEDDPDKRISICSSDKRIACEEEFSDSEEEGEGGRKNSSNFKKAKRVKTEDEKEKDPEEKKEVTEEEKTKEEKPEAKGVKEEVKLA

SMILES | IC50 (Human HDAC1) [nM] | IC50 (Human HDAC4) [nM] | IC50 (Human HDAC5) [nM] | IC50 (Recombinant human HDAC6) [nM] | IC50 (Human HDAC7) [nM] | IC50 (Human HDAC9) [nM]
CS(=O)(=O)c1cnc(N(Cc2ccc(-c3noc(C(F)(F)F)n3)s2)c2cnccn2)cn1 [Example BL, 5-Methanesulfonyl-N-(pyrazin-2-yl)-N-({5-[5-(trifluoromethyl)-1,2,4-oxadiazol-3-yl]thiophen-2-yl}methyl)pyrazin-2-amine] | > 10000 | ≤ 1000 | ≤ 1000 | ≤ 10000 | ≤ 1000 | ≤ 10000
FC(F)(F)c1nc(-c2ccc(CN(c3cnccn3)c3cc4nccnc4cn3)s2)no1 [Example AF, N-{Pyrido[3,4-b]pyrazin-7-yl}-N-({5-[5-(trifluoromethyl)-1,2,4-oxadiazol-3-yl]thiophen-2-yl}methyl)pyrazin-2-amine] | > 10000 | ≤ 10000 | ≤ 1000 | ≤ 1000 | ≤ 10000 | ≤ 10000
Cc1cc(N(Cc2ccc(-c3noc(C(F)(F)F)n3)s2)c2cnccn2)ncn1 [Example CG, 6-Methyl-N-(pyrazin-2-yl)-N-({5-[5-(trifluoromethyl)-1,2,4-oxadiazol-3-yl]thiophen-2-yl}methyl)pyrimidin-4-amine] | > 10000 | ≤ 10000 | ≤ 1000 | ≤ 1000 | ≤ 10000 | ≤ 10000
CN(C)c1nccc(N(Cc2ccc(-c3noc(C(F)(F)F)n3)s2)c2cnccn2)n1 [Example CC, N2,N2-Dimethyl-N4-(pyrazin-2-yl)-N4-({5-[5-(trifluoromethyl)-1,2,4-oxadiazol-3-yl]thiophen-2-yl}methyl)pyrimidine-2,4-diamine] | > 10000 | ≤ 10000 | ≤ 10000 | ≤ 10000 | ≤ 10000 | ≤ 10000

The next lines start with the values.

IC50 (Human HDAC1) [nM] | IC50 (Human HDAC4) [nM] | IC50 (Human HDAC5) [nM] | IC50 (Recombinant human HDAC6) [nM] | IC50 (Human HDAC7) [nM] | IC50 (Human HDAC9) [nM] | SMILES
≤ 10000 | ≤ 1000 | ≤ 1000 | ≤ 500 | ≤ 1000 | ≤ 10000 | Cn1cc(-c2ccc(N(Cc3ccc(-c4noc(C(F)(F)F)n4)s3)c3cnccn3)nn2)cn1 [Example DO, 6-(1-Methyl-1H-pyrazol-4-yl)-N-(pyrazin-2-yl)-N-({5-[5-(trifluoromethyl)-1,2,4-oxadiazol-3-yl]thiophen-2-yl}methyl)pyridazin-3-amine]
> 10000 | ≤ 1000 | ≤ 10000 | ≤ 10000 | ≤ 10000 | ≤ 10000 | FC(F)(F)c1nc(-c2ccc(CN(c3cnccn3)c3cncnc3C(F)(F)F)s2)no1 [Example DA, N-(Pyrazin-2-yl)-4-(trifluoromethyl)-N-({5-[5-(trifluoromethyl)-1,2,4-oxadiazol-3-yl]thiophen-2-yl}methyl)pyrimidin-5-amine]
